Assay results taken from US5527785A, “Selectin receptor modulating compositions” (The Regents of the University of California, priority 1993, dated 1996).
Blank lines part the entries; values can stand above or below the molecule they belong to.

Experiments:
L-selectin-Ig [1] = experiment: Competition ELISA, L-selectin-Ig binding to BSA-sLe^x; details: for inhibition of L-selectin-Ig binding to BSA-sLe^x (in words): competitive ELISA, FIG. 8
E-selectin-Ig [2] = experiment: Competition ELISA, E-selectin-Ig binding to BSA-sLe^x
Description: (§1) Briefly, microtiter plates were coated with neoglycoprotein BSA-sLe^x, BSA-sLe^a, (Chembiomed, Alberta, CAN) or unconjugated BSA (0.11 μg/well) in 50 mM carbonate bicarbonate buffer, pH 9.5. Plates were blocked with 20 mg/ml BSA in ELISA buffer (150 mM NaCl, 20 mM HEPES, 2 mM CaCl2, 0.25 mM thimerosal, pH 7.4). E- and P-selectin-Ig fusion proteins (20 nM) were coincubated in the coated, blocked microtiter wells with serially diluted heparin fragments (typically 0-1000 μg/ml) in ELISA buffer containing 10 mg/ml BSA for three hours at room temperature. […] Color development was stopped in the linear range (typically after 4-16 minutes) using 5 μl 4 NH2 SO4, and endpoint optical density measured at 490 nm.

P-selectin [3] = details: Larsen, et al.; cited from earlier work
P-selectin-Ig [4] = experiment: Competition ELISA, P-selectin-Ig binding to BSA-sLe^x; details: Table 1, P-selectin; approximate IC50 values
Description: as §1

L-selectin-Ig [5] = details: Table 1, L-selectin; footnote: Foxall, et al., supra; cited from earlier work
L-selectin-Ig [6] = details: 5 mM; cited from earlier work
L-selectin-Ig [7] = details: 11 mM; cited from earlier work
P-selectin [8] = experiment: HL60 cell adhesion to COS cells transfected with P-selectin cDNA; format: cell-based; details: at the concentrations tested in these adhesion assays (HL60 and PMN to selectin-transfected COS)
Description: COS cells were grown on coverslips in Dulbecco's minimal essential media with 10% fetal calf serum. After 72 hours, polysaccharides were added to the COS cell cultures to achieve final concentrations of 0, 0.1, 1.0, 10.0, 100.0 or 1000.0 μg/ml. Polysaccharides included crude heparin, dermatan sulfate, heparin tetrasaccharide, and heparin hexasaccharide. HL60 cells, a leukocytic cell line, were added to the COS cell cultures 30 minutes after the polysaccharides were added and incubated for 30 minutes. The coverslips were then washed with media to remove unbound cells and COS cells with three or more HL60 cells bound (rosettes) were counted using phase contrast microscopy.
Briefly, subconfluent monolayers were incubated at 37° C. for 2.5 hours with Dulbecco's modified Eagle's medium (DMEM) with 10% NuSerum (Collaborative Research, Bedford, Mass.) containing 10 μg cDNA, 400 μg/mL DEAE-dextran (Sigma), and 100 μM chloroquine diphosphate (Sigma). […] HL60 cell adhesion was quantitated as number of HL60 rosettes (2 or more cells bound) per 100 transfected COS cells. Number of transfected COS was determined using mAbs specific for E-, P-, and L-selectin (see below) followed by secondary reaction with a fluorescein-conjugated anti-immunoglobulin antibody (Cappel, Durham, N.C.). […]

P-selectin-Ig [9] = experiment: LS180 colon cancer cell adhesion to immobilized P-selectin-Ig; format: cell-based; details: FIG. 5
Description: (§2) The colon carcinoma cell line, LS180, is a useful model for studying selectin-dependent adhesion since it binds to all three selectins. E-, P-, and L-selectin-Ig were immobilized on microwell (Terasaki) plates coated with protein A. Five μl of buffer containing crude heparin, di-, tetra- or hexasaccharide heparin fragments or antibody (as described above) was incubated for 20 minutes at 4° C. Five μl containing 5000 LS180 cells was added for 30 minutes at 4° C. to allow adhesion to occur. The wells were then washed, fixed with glutaraldehyde, and the bound cells counted by microscopic observation.

L-selectin-Ig [10] = experiment: LS180 colon cancer cell adhesion to immobilized L-selectin-Ig; format: cell-based; details: FIG. 5
Description: as §2

E-selectin-Ig [11] = experiment: LS180 colon cancer cell adhesion to immobilized E-selectin-Ig; format: cell-based; details: FIG. 5
Description: as §2

IC50, inhibition of L-selectin-Ig (L-selectin-Ig [1]; competition ELISA, FIG. 12): 61 µg/mL
IC50 (L-selectin-Ig [1]; competition ELISA, FIG. 12, read-out: IC50, inhibition of L-selectin-Ig): 46 µM
activity relative to the size fractionated tetrasaccharide mixture (L-selectin-Ig [1]; competition ELISA, L-selectin-Ig): 2-4 fold
activity against L-selectin relative to sLe^x in non-cellular assays (L-selectin-Ig [1]; non-cellular assays, F4 vs sLe^x): over 100 fold
activity against E-selectin-Ig (in words) (E-selectin-Ig [2]; concentrations up to 1 mM): no activity
Structure (SMILES): O=C(O)C1=C[C@H](O)[C@@H](OS(=O)(=O)O)[C@H](O[C@H]2[C@H](O)[C@@H](NS(=O)(=O)O)[C@@H](O[C@H]3[C@H](O)[C@@H](OS(=O)(=O)O)[C@H](O[C@H]4[C@H](O)[C@@H](NS(=O)(=O)O)C(O)O[C@@H]4COS(=O)(=O)O)O[C@H]3C(=O)O)O[C@@H]2COS(=O)(=O)O)O1 (some centres unmarked) [F4, ΔUA2Sα1-4DGIcNS6Sα1-4LIdoA2Sα1-4DGIcNS6S]

Structure (SMILES): CC(=O)N[C@H]1[C@H](O[C@H]2[C@@H](O)[C@@H](CO)O[C@@H](O[C@H]3[C@H](O)[C@@H](O)C(O)O[C@@H]3CO)[C@@H]2O)O[C@H](CO)[C@@H](O[C@@H]2O[C@H](CO)[C@H](O)[C@H](O)[C@H]2O)[C@@H]1O[C@@H]1O[C@@H](C)[C@@H](O)[C@@H](O)[C@@H]1O (some centres unmarked) [LNF-III]
P-selectin-dependent rosetting of activated platelets to leukocytes (in words) (P-selectin [3]): blocked

activity against L-selectin-Ig binding (in words) (L-selectin-Ig [1]; concentrations of up to 1 mM): no measurable activity
IC50, inhibition of P-selectin-Ig binding to BSA-sLe^x (P-selectin-Ig [4]): > 1000 µg/mL
IC50 (E-selectin-Ig [2]; read-out: IC50, E-selectin-Ig binding to immobilized BSA-sLe^x): 510 ± 60 µM
Structure (SMILES): CC(=O)NC1C(O)CC(OC2C(O)C(CO)OC(OC3C(CO)OC(O)C(NC(C)=O)C3OC3OC(C)C(O)C(O)C3O)C2O)(C(=O)O)OC1C(O)C(O)CO (centres unmarked) [sLex, Neu5Acα2-3Galβ1-4(Fucα1-3)GIcNAc, reference compound]
IC50, inhibition of L-selectin-Ig binding (L-selectin-Ig [5]): 4100 µg/mL
block of L-selectin-Ig binding to immobilized sLe^x glycolipid (L-selectin-Ig [6]): approximately 50%
block of L-selectin-Ig binding to glycam-1 (L-selectin-Ig [7]): approximately 60%

IC50, inhibition of L-selectin-Ig binding to BSA-sLe^x (L-selectin-Ig [1]; Table 1, L-selectin, approximate IC50 values): > 1000 µg/mL
inhibition of L-selectin-Ig binding to BSA-sLe^x (in words) (L-selectin-Ig [1]; listed as tris-sulfated heparin disaccharide): some inhibition
inhibition of L-selectin-Ig binding to BSA-sLe^x (in words) (L-selectin-Ig [1]; listed as trisulfated disaccharide fragment of heparin): somewhat effective
IC50, inhibition of P-selectin-Ig binding to BSA-sLe^x (P-selectin-Ig [4]): > 1000 µg/mL
Structure (SMILES): O=C(O)C1=C[C@H](O)[C@@H](OS(=O)(=O)O)[C@H](O[C@H]2[C@H](O)[C@@H](NS(=O)(=O)O)C(O)O[C@@H]2COS(=O)(=O)O)O1 (some centres unmarked) [Di, UA2Sα1-4GIcNS6S]
blocking activity in the COS cell adhesion assays (in words) (P-selectin [8]): little blocking activity
adhesion of LS180 cells to plates coated with P-selectin-Ig (in words) (P-selectin-Ig [9]): no effect
adhesion of LS180 cells to plates coated with L-selectin-Ig (in words) (L-selectin-Ig [10]): no effect
adhesion of LS180 cells to plates coated with E-selectin-Ig (in words) (E-selectin-Ig [11]): no effect
